The text below walks through data of US7833964B2, “Methods of reducing visceral fat by increasing levels of insulin-like growth factor-I (IGF-I)” (Tercica, Inc., priority 2003, dated 2010).

The nature of data set [1]: Abdominal CT scan: visceral (VAT) and subcutaneous (SAT) adipose tissue, abdominal perimeter. The following applies: for change in abdominal perimeter by CT scan, mean±SEM: 12 weeks. Format: in vivo, human. The protocol:
(§1) All CT scans were performed on GE Sytec 4000 CT scanners or an equivalent scanner.
An initial Abdominal Scan was performed using the following procedure: • 1. After the thigh scan was complete, a small triangular wedge pillow was placed under the subject's knees to help tilt the spine to the correct position. The arms were crossed over the chest/neck with elbows up and out of the way of the abdomen. The subject's underpants were pulled down so that the elastic of the underwear was well out of the way of the site where the scan was taken. • 2. The technician positioned the bed in the scanner so that a lateral topogram could be taken that included at least T12 through L5 of the spine. This picture was recorded on film. • 3. The location of the midsection of L3 was identified. • 4. A 10-mm slice at the level of the midpoint of L3 (angle must be zero so that the slice was perpendicular) was taken at the same settings as were used for the thigh slice, with the exception of the DFOV, which was 35 or 45 (35 for a small person and 45 for a large person).
The entire cross section of the abdomen was on the screen. If the entire abdomen was not on the screen, the picture was reconfigured. Once the entire abdomen was on the screen, the technician downloaded it onto the disk and verified that the image was actually on the disk. This was then recorded on film. • 5. The technician sent the film to the printer at this point. It was a requirement that each film had four pictures, and the film had the lateral topogram of the spine and the slice. • 6. The technician then recorded the exam number, the series number, and the image number of slice. • 7. The subject was then removed from the table if there were no more measurements to obtain and the film was collected.
The same procedures were then followed for the repeat abdominal scans with identical settings and locations being used for the repeat scans.
(§2) Slices were downloaded onto the scanner and then retrieved via optical disk (or the Internet if possible) to a computer for analysis. During analysis, the area of intra-abdominal and subcutaneous fat as well as oblique, psoas, quadratum laborum, and sacrospinalis muscles were measured. The images were digitized by optical density to separate bone, muscle, and fat compartments using a modified version of the NIH IMAGE program. Pixel units were converted to area measurements using an internal calibration standard. Digitized images were analyzed in a blinded fashion. The coefficient of variation of repeated analysis of a single scan is <1.5%.
Another independent measurement was that the CT scan assessed the abdominal diameter and the abdominal perimeter (e.g., belt size). The abdominal perimeter in subjects treated with glyburide alone was unchanged (−0.3±0.8 cm, mean±SEM) but in subjects treated with IGF-I at 20 micrograms/kg it was reduced (−1.4±0.8 cm) and was reduced even more in subjects treated with 40 micrograms/kg to (−2.9±1.3 cm). This reduction in “girth” caused by high dose IGF-I was, in layman's terms over an inch, or one belt notch, clearly a significant effect in only 12 weeks.
The body components contributing to these beneficial effects of IGF-I on body weight, BMI and girth were then analyzed by studying the changes in body composition as measured by computerized scanning. Two scans were performed. A scan was performed before treatment with IGF-I and another scan was performed after treatment with IGF-I. These two scans were analyzed by measuring the area of fat so that the effect of treatment with IGF-I could be ascertained.
The effect of IGF-I on body fat was estimated using the visceral adipose tissue (VAT) in abdomen and the subcutaneous adipose tissue (SAT) in the abdomen. The absolute changes in fat and the percent changes in fat were both analyzed. The percent changes were analyzed to guard against subjects with larger amounts of fat being given undue statistical weight in the analyses. […]

A short description of data set [2]: Mid-thigh CT scan: thigh adipose tissue (TAT). Format: in vivo, human. The protocol:
as §1
An initial Thigh Scan was performed using the following procedure: • 1. The subject lay on the CT bed with his or her feet toward the scanner. The subject's knees were at least 3 inches above the extended bed joint, not over the joint. • 2. The legs were positioned so they were not touching each other and the hands were crossed over the abdomen so as not to interfere with the scan. • 3. The CT technician then positioned the bed. The entire femur was visualized in the initial topogram. • 4. The technician then made a topogram of the entire femur of the non-dominant leg and recorded this picture on the film. The length of the femur was then measured and recorded and this measurement was used to identify the midpoint of the femur. This midpoint was used to assess the cross section of the thigh. • 5. The technician took a 10-mm slice at the precise level of the mid-point of the femur with the following settings for a GE Sytec 4000 scanner: • kV=100 • MA=170 • 1 sec • DFOV=21 • Algorithm=standard
Technicians were advised that although settings for some scanners may be slightly different, the settings must be standardized so as to give the greatest definition for fat and lean tissue. Once the technician determined the appropriate setting for a scanner, he or she was advised to use the same settings for every (slice) scan. The topograms could be at different settings as the topograms would not be imaged. • 6. The entire cross section of the nondominant thigh was visualized on the screen. If the entire thigh was not visualized on the screen, the picture was reconfigured with a larger display field of view. Once the entire thigh was visualized on the screen, the technician downloaded the cross section to the disk. The disk was checked to make sure the image was actually there, and then the picture was recorded on film. • 7. The exam number, series number, and image number of the slice was then recorded. • 8. The technician sent the film to the printer at this point. The film was set at four pictures per film, and the film had for the femur the recorded total distance, the midpoint, and the slice of the thigh.
The same leg (left) was used as in the initial scan. A topogram of the thigh was taken, and a measurement made down the femur to the midpoint of the femur using the same distance as was used in the baseline thigh scan. A 10-mm cross section scan was taken at the midpoint using the identical settings as were used for the baseline scan. A record was made of the exam number, series number, and image number of the slice.
as §2

The nature of data set [3]: Adverse events judged possibly or probably related to study drug. The following applies: glyburide 10 mg BID + rhIGF-I placebo (N = 34).
Description: All adverse events occurring during the treatment and post-treatment periods of the study (day 1 to week 14) were monitored through the follow-up evaluation at week 14. Adverse events continuing beyond the follow-up period were monitored until resolution, as appropriate.
In addition to the adverse events described above, hypoglycemia was expected to occur in some subjects. Hypoglycemia was defined as a BG of <50 mg/dL as indicated by the One-Touch Profile BG meter or the clinical laboratory. In the event of repeated hypoglycemic episodes, the glyburide dose could be decreased (during the treatment period only). Symptomatic hypoglycemic episodes, regardless of blood glucose reading, were documented as hypoglycemia.
For data set [4] the following is noted: IGF-I administration in human subjects; cited from earlier work.
The conditions of data set [5]: injected in castrated male sheep; cited from earlier work.
For data set [6] the following is noted: rats, catabolic state induced by diabetes, dexamethasone, or intestinal resection; cited from earlier work.
The conditions of data set [7]: mini-poodles; cited from earlier work.
Setting [8] is: glyburide active + IGF-I placebo.
The mark [9] stands for this setting: glyburide active + IGF-I placebo, abdominal CT, change from baseline.
Setting [10] is: IGF-I 20 μg/kg, with glyburide or glyburide placebo per label.
[11] abbreviates: IGF-I 40 μg/kg, with glyburide or glyburide placebo per label.

Several values for one entry are separate records, joined by “and”; a condition that tells them apart may be missing. Equal entries are not always repeated.

For the compound `COc1ccc(Cl)cc1C(=O)NCCc1ccc(S(=O)(=O)NC(=O)NC2CCCCC2)cc1` [Glyburide, glyburide, reference compound], in data set [1] (setting [8]), the “Mean SAT % Change (SEM)” value was 1% and 1.0 (1.9) %; the “Mean VAT % Change (SEM)” value is 9% and 9.3 (3.9) %. Moreover, in data set [1] (setting [9]), the “Change in SAT, mean (SEM)” value is 2.0 (5.6) cm^2 and the “Change in VAT, mean (SEM)” value was 13.6 (6.4) cm^2. Besides, the “change in abdominal perimeter by CT scan, mean±SEM” value (from here on “change … mean±SEM”) in data set [1] (glyburide alone) was −0.3±0.8 cm. Moreover, the “Change in TAT (%), mean (SEM)” value in data set [2] (setting [8]) is reported as 2.5 (2.0) %. Also, in data set [2] (glyburide active + IGF-I placebo, thigh CT, change from baseline), the “Change in TAT, mean (SEM)” value was 1.0 (1.6) sq cm. In data set [3], the “Adverse event: Arthralgia” value is recorded as 1 (3) n (%), the “Adverse event: Asthenia” value is reported as 2 (6) n (%), the “Adverse event: Headache” value is on record as 2 (6) n (%) and the “Adverse event: Hypoglycemia” value was 3 (9) n (%). In data set [3], the “Adverse event: Jaw pain” value is 1 (3) n (%), the “Adverse event: Pain” value is on record as 2 (6) n (%) and the “Adverse event: Peripheral Edema” value is on record as 0 n (%).

For “IGF-I: recombinant human insulin-like growth factor-I from Genentech; sterile benzyl alcohol-preserved solution, 70 mg in 7 mL acetate/NaCl, pH 5.4; given SC”, in data set [1] (setting [10]), the “Change in SAT, mean (SEM)” value is −12.3 (4.1) cm^2; the “Change in VAT, mean (SEM)” value was 1.0 (9.0) cm^2; the “Mean SAT % Change (SEM)” value is recorded as −6.0 (2.6) %; the “Mean VAT % Change (SEM)” value is reported as 1.0 (4.0) %. In addition, in data set [1] (setting [11]), the “Change in SAT, mean (SEM)” value is −16.1 (5.4) cm^2; the “Change in VAT, mean (SEM)” value is −20.0 (7.6) cm^2; the “Mean SAT % Change (SEM)” value is listed as −6.4 (2.5) %; the “Mean VAT % Change (SEM)” value is recorded as −9.4 (3.9) %. Besides, the “visceral fat area reduced by” value in data set [1] (IGF-I alone at 40 μg/kg) was around 10%. Besides, the “change … mean±SEM” value in data set [1] (IGF-I at 20 micrograms/kg) is −1.4±0.8 cm. Besides, in data set [1] (IGF-I at 40 micrograms/kg), the “change … mean±SEM” value is on record as −2.9±1.3 cm. In addition, in data set [2] (setting [10]), the “Change in TAT (%), mean (SEM)” value is −1.4 (3.7) % and the “Change in TAT, mean (SEM)” value is reported as −1.2 (2.8) sq cm. Also, in data set [2] (setting [11]), the “Change in TAT (%), mean (SEM)” value is given as 3.9 (4.3) % and the “Change in TAT, mean (SEM)” value is listed as 0.3 (4.3) sq cm. Further, in data set [4], the “effect on body fat and body composition” value was “little effect”. For the same compound, in data set [5], the “effect on body fat” value was “no detectable effect” and the insulin levels result is on record as “lowered insulin levels”. In addition, the “percentage of body fat” value in data set [6] was “trend toward a lower percentage of body fat”. For the same compound, in data set [7], the body mass index entry is on record as “reduced body mass index”.
